Data taken from patent US11590116B2 (THERAVANCE BIOPHARMA R&D IP, LLC, priority 2019, dated 2023).

Columns and labels:
[1] = tested on: TGF-β-stimulated SMAD3 phosphorylation in BEAS-2B cells; experiment: Cellular ALK5 potency assay, inhibition of TGF-β stimulated pSMAD3 formation in BEAS-2B cells; format: cell-based; details: Homo sapiens; inhibition of TGF-β stimulated pSMAD3 formation, BEAS-2B cells; read-out: BEAS2B pIC50 (converted)
Summary of the method: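 Potency is reported as pIC50, derived from concentration-dependent reduction of pSMAD3 AlphaLISA signal against TGF-β-stimulated cells without compound. BEAS-2B cells received compound for 1 h before a 30-min stimulation with 10 ng/mL TGF-β.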

[2] = biological target: T1, recombinant human ALK5 (TGF-βR1) protein (Homo sapiens, UniProt P36897); experiment: Biochemical ALK5 (TGF-βR1) assay to measure pKi (LANCE Ultra ULight kinase assay); details: apparent pKi from pIC50 by Cheng-Prusoff, read-out: ALK5 pKi (converted)
T1 construct: purchased Life Technologies PR9075A
T1 sequence (P36897 34-503): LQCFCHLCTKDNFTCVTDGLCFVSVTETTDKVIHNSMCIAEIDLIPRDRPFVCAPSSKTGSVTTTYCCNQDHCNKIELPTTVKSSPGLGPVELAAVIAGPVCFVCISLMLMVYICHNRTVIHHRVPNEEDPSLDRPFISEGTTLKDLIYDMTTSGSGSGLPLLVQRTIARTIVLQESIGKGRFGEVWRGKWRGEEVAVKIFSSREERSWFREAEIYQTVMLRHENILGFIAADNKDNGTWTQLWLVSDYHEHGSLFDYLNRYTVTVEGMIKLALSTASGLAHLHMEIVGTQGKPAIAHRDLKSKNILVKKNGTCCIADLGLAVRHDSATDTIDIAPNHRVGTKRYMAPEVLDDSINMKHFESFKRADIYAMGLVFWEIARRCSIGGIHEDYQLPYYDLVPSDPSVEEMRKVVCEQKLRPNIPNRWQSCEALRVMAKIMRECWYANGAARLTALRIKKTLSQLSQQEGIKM
Summary of the method: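 Compounds (10 μM to 25 pM) were preincubated 60 min at room temperature with enzyme, then reactions were started with ATP (125 μM stock, 5× final) and run 60 min at 37 °C. EDTA-containing Eu-anti-phospho-Topo IIα (Thr1342) antibody stopped the reaction; TR-FRET read at 665 nm. pIC50 from 4-parameter fit, converted to pKi via Cheng-Prusoff.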

Ki [2]	Compound	IC50 [1]
< 0.0316 nM	Cc1cccc(-c2[nH]cnc2-c2ccc3ncc(-c4cccc(C(=O)OCC5CNC5)n4)cc3c2)n1 [Compound 1044, azetidin-3-ylmethyl 6-[6-[5-(6-methyl-2-pyridyl)-1H-imidazol-4-yl]-3-quinolyl]pyridine-2-carboxylate]	200 to 1260 nM
0.0398 to 0.316 nM	Cc1cccc(-c2[nH]cnc2-c2ccc3ncc(-c4cccc(C(=O)O[C@H]5CCN(C)C5)c4)cc3c2)n1 [Compound 522, [(3S)-1-methylpyrrolidin-3-yl] 3-[6-[5-(6-methyl-2-pyridyl)-1H-imidazol-4-yl]-3-quinolyl]benzoate]	25.1 to 158 nM
0.0398 to 0.316 nM	Cc1cccc(-c2[nH]cnc2-c2ccc3ncc(-c4ccc(C(=O)OCCN5CCC[C@H](N)C5)cn4)cc3c2)n1 [Compound 1214, 2-[(3S)-3-amino-1-piperidyl]ethyl 6-[6-[5-(6-methyl-2-pyridyl)-1H-imidazol-4-yl]-3-quinolyl]pyridine-3-carboxylate]	25.1 to 158 nM
0.0398 to 0.316 nM	Cc1cccc(-c2[nH]cnc2-c2ccc3ncc(-c4ccc(C(=O)OCCN5CCNCC5)s4)cc3c2)n1 [Compound 1088, 2-piperazin-1-ylethyl 5-[6-[5-(6-methyl-2-pyridyl)-1H-imidazol-4-yl]-3-quinolyl]thiophene-2-carboxylate]	25.1 to 158 nM
0.398 to 3.16 nM	Cc1cccc(-c2n[nH]cc2-c2ccc3ncc(N4C[C@H]5C[C@@H]4CN5C)cc3n2)n1 (racemic) [Compound 437, 2-[3-(6-methyl-2-pyridyl)-1H-pyrazol-4-yl]-7-[rac-(1R,4R)-5-methyl-2,5-diazabicyclo[2.2.1]heptan-2-yl]-1,5-naphthyridine]	25.1 to 158 nM
< 0.0316 nM	Cc1cccc(-c2n[nH]cc2-c2ccc3ncc(N4CC(C)(N(C)C)C4)cc3n2)n1 [Compound 586, N,N,3-trimethyl-1-[6-[3-(6-methyl-2-pyridyl)-1H-pyrazol-4-yl]-1,5-naphthyridin-3-yl]azetidin-3-amine]	25.1 to 158 nM
0.0398 to 0.316 nM	Cc1cccc(-c2[nH]cnc2-c2ccc3ncc(-c4cnc5c(c4)CNC5)cc3c2)n1 [Compound 443, 3-(6,7-dihydro-5H-pyrrolo[3,4-b]pyridin-3-yl)-6-[5-(6-methyl-2-pyridyl)-1H-imidazol-4-yl]quinoline]	25.1 to 158 nM
< 0.0316 nM	CC(=O)N[C@@H]1CC=C(c2cnc3ccc(-c4nc[nH]c4-c4cccc(C)n4)cc3c2)CC1 [Compound 380, N-[(1S)-4-[6-[5-(6-methyl-2-pyridyl)-1H-imidazol-4-yl]-3-quinolyl]cyclohex-3-en-1-yl]acetamide]	< 20 nM
0.0398 to 0.316 nM	CNCCn1cc(-c2cnc3ccc(-c4c(-c5cccc(C)n5)nc5ccccn45)nc3c2)cn1 [Compound 527, N-methyl-2-(4-(6-(2-(6-methylpyridin-2-yl)imidazo[1,2-a]pyridin-3-yl)-1,5-naphthyridin-3-yl)-1H-pyrazol-1-yl)ethan-1-amine]	25.1 to 158 nM
3.98 to 31.6 nM	CCOC(=O)c1ccnc2ccc(-c3c(-c4cccc(C)n4)n[nH]c3-c3cccc(F)c3)nc12 [Compound 858, ethyl 6-[5-(3-fluorophenyl)-3-(6-methyl-2-pyridyl)-1H-pyrazol-4-yl]-1,5-naphthyridine-4-carboxylate]	200 to 1260 nM
0.0398 to 0.316 nM	CNCCn1cc(-c2cnc3ccc(-c4c(-c5cccc(C)n5)nn5cc(Cl)ccc45)cc3c2)cn1 [Compound 605, 2-[4-[6-[6-chloro-2-(6-methyl-2-pyridyl)pyrazolo[1,5-a]pyridin-3-yl]-3-quinolyl]pyrazol-1-yl]-N-methyl-ethanamine]	200 to 1260 nM
0.0398 to 0.316 nM	Cc1cccc(-c2[nH]cnc2-c2ccc3ncc(C(=O)OCC4CNC4)cc3c2)n1 [Compound 700, azetidin-3-ylmethyl 6-[5-(6-methyl-2-pyridyl)-1H-imidazol-4-yl]quinoline-3-carboxylate]	25.1 to 158 nM
0.0398 to 0.316 nM	Cc1cccc(-c2[nH]cnc2-c2ccc3ncc(N4CCN(C)C(CC(=O)OCC5CNC5)C4)cc3c2)n1 (centres unmarked) [Compound 640, azetidin-3-ylmethyl 2-[1-methyl-4-[6-[5-(6-methyl-2-pyridyl)-1H-imidazol-4-yl]-3-quinolyl]piperazin-2-yl]acetate]	1580 to 10000 nM
0.398 to 3.16 nM	Cc1cccc(-c2[nH]cnc2-c2ccc3ncc(C(=O)OC[C@@H]4CCCCN4)cc3c2)n1 [Compound 883, (S)-piperidin-2-ylmethyl 6-(5-(6-methylpyridin-2-yl)-1H-imidazol-4-yl)quinoline-3-carboxylate]	25.1 to 158 nM
0.0398 to 0.316 nM	Cc1cccc(-c2[nH]cnc2-c2ccc3ncc(-c4nc(C(=O)OCCN5CCC[C@@H](N)C5)cs4)cc3c2)n1 [Compound 1252, 2-[(3R)-3-amino-1-piperidyl]ethyl 2-[6-[5-(6-methyl-2-pyridyl)-1H-imidazol-4-yl]-3-quinolyl]thiazole-4-carboxylate]	25.1 to 158 nM
0.398 to 3.16 nM	Cc1cccc(-c2[nH]cnc2-c2ccc3ncc(Nc4ccc(N5CCN(Cc6ccccc6)CC5)cn4)cc3c2)n1 [Compound 510, N-[5-(4-benzylpiperazin-1-yl)-2-pyridyl]-6-[5-(6-methyl-2-pyridyl)-1H-imidazol-4-yl]quinolin-3-amine]	25.1 to 158 nM

Continued, molecule first:

Compound	Ki [2]	IC50 [1]
Cc1cccc(-c2[nH]cnc2-c2ccc3ncc(-c4cccc(C(=O)OC5CNC5)c4)cc3c2)n1 [Compound 197, azetidin-3-yl 3-[6-[5-(6-methyl-2-pyridyl)-1H-imidazol-4-yl]-3-quinolyl]benzoate]	0.0398 to 0.316 nM	25.1 to 158 nM
Cc1cccc(-c2[nH]cnc2-c2ccc3ncc(NC(=O)C4CC(N)C4)cc3c2)n1 (centres unmarked) [Compound 3, 3-amino-N-[6-[5-(6-methyl-2-pyridyl)-1H-imidazol-4-yl]-3-quinolyl]cyclobutanecarboxamide]	0.0398 to 0.316 nM	200 to 1260 nM
Cc1cccc(-c2n[nH]cc2-c2ccc3ncc(C4=CCCC4)cc3n2)n1 [Compound 88, 7-(cyclopenten-1-yl)-2-[3-(6-methyl-2-pyridyl)-1H-pyrazol-4-yl]-1,5-naphthyridine]	< 0.0316 nM	< 20 nM
Cc1cccc(-c2n[nH]cc2-c2ccc3ncc(N4CCCN(Cc5ccccc5)CC4)cc3n2)n1 [Compound 65, 7-(4-benzyl-1,4-diazepan-1-yl)-2-[3-(6-methyl-2-pyridyl)-1H-pyrazol-4-yl]-1,5-naphthyridine]	0.0398 to 0.316 nM	200 to 1260 nM
Cc1cccc(-c2nnn(Cc3ccccc3)c2-c2ccc3ncc(N4CCNCC4)cc3n2)n1 [Compound 359, 2-(1-benzyl-4-(6-methylpyridin-2-yl)-1H-1,2,3-triazol-5-yl)-7-(piperazin-1-yl)-1,5-naphthyridine]	0.0398 to 0.316 nM	25.1 to 158 nM
Cc1cccc(-c2n[nH]cc2-c2ccc3ncc(N4CCN(Cc5cccnc5)CC4)cc3n2)n1 [Compound 132, 2-[3-(6-methyl-2-pyridyl)-1H-pyrazol-4-yl]-7-[4-(3-pyridylmethyl)piperazin-1-yl]-1,5-naphthyridine]	0.0398 to 0.316 nM	25.1 to 158 nM
CNC1CCN(c2cnc3ccc(-c4c[nH]nc4-c4ccc(F)c(C)n4)nc3c2)CC1 [Compound 264, 1-[6-[3-(5-fluoro-6-methyl-2-pyridyl)-1H-pyrazol-4-yl]-1,5-naphthyridin-3-yl]-N-methyl-piperidin-4-amine]	< 0.0316 nM	25.1 to 158 nM
Cc1cccc(-c2n[nH]cc2-c2ccc3ncc(NCC4CNCCN4)cc3n2)n1 (centres unmarked) [Compound 269, 6-[3-(6-methyl-2-pyridyl)-1H-pyrazol-4-yl]-N-(piperazin-2-ylmethyl)-1,5-naphthyridin-3-amine]	0.0398 to 0.316 nM	1580 to 10000 nM
Cc1cccc(-c2n[nH]cc2-c2ccc3ncc(-c4cn[nH]c4)c(C4CCCN4)c3c2)n1 (centres unmarked) [Compound 356]	0.0398 to 0.316 nM	200 to 1260 nM
Cc1nc(-c2nc3ccccn3c2-c2ccc3ncc(N4CCNCC4)cc3n2)ccc1F [Compound 2, 2-[2-(5-fluoro-6-methyl-2-pyridyl)imidazo[1,2-a]pyridin-3-yl]-7-piperazin-1-yl-1,5-naphthyridine]	0.0398 to 0.316 nM	25.1 to 158 nM
Cc1cccc(-c2[nH]cnc2-c2ccc3ncc(NCC4CNC4)cc3c2)n1 [Compound 11, N-(azetidin-3-ylmethyl)-6-[5-(6-methyl-2-pyridyl)-1H-imidazol-4-yl]quinolin-3-amine]	0.0398 to 0.316 nM	25.1 to 158 nM
Cc1cccc(-c2[nH]cnc2-c2ccc3ncc(C4=CCC(N)CC4)cc3n2)n1 (centres unmarked) [Compound 149, 4-[6-[5-(6-methyl-2-pyridyl)-1H-imidazol-4-yl]-1,5-naphthyridin-3-yl]cyclohex-3-en-1-amine]	< 0.0316 nM	25.1 to 158 nM
